Test results taken from PMC10535864, “Novel Aminopyrimidine-2,4-diones, 2-Thiopyrimidine-4-ones, and 6-Arylpteridines as Dual-Target Inhibitors of BRD4/PLK1: Design, Synthesis, Cytotoxicity, and Computational Studies” (Pharmaceuticals, 2023).
Where two headings read alike, the source gives them in different places. Each block holds one molecule with its values, some of them ahead of it.

Columns and labels:
[1] = MTT cytotoxicity assay, U-937; assay type: cell-based; details: Homo sapiens, U-937, U937, MTT;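 further: Six-dose MTT colorimetric assay on cell monolayers, formazan absorbance read at 560 nm with 620 nm background removed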
U-937 renal cancer cells = assay: MTT cytotoxicity assay, U-937; assay type: cell-based; details: MTT; for Toxicity %: U937;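 on all read-outs here: Six-dose MTT colorimetric assay on cell monolayers, formazan absorbance read at 560 nm with 620 nm background removed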
[2] = tested on: HT-29 colorectal adenocarcinoma cells; assay: MTT cytotoxicity assay, HT-29; assay type: cell-based; details: MTT
Experimental: (§1) All newly synthetic compounds were tested for cytotoxicity using a six-dose MTT colorimetric assay on three cancer cell lines; namely, breast cancer cells (MDA-MB-231), colorectal adenocarcinoma cells (HT-29) and renal cancer cells (U-937). […] However, renal cancer cells (U-937) were discovered to be the least sensitive.
(§2) Using a six-dose MTT colorimetric assay, all new synthetic compounds were tested for cytotoxicity against three cancer cell lines: MDA-MB-231 breast cancer cells, HT-29 colorectal adenocarcinoma cells, and U-937 renal cancer cells. […] These cell lines were supplied by ATCC (American Type Culture Collection) via the Holding company for biological products and vaccines (VACSERA, Cairo, Egypt). The reference control used was Methotrexate. Detailed descriptions of the MTT colorimetric assay’s protocol can be found in the Supplementary file.
(§3) 1.1.In-vitro cytotoxicity screening
(§4) Using a six-dose MTT colorimetric assay, allnew synthetic compounds were tested for cytotoxicity against three cancer cell lines: MDA-MB-231 breast cancer cells,HT-29 colorectal adenocarcinoma cells, and U-937 renal […]
(§5) The cell lines were supplied by ATCC (American Type Culture Collection). The reference control used was Methotrexate. The cytotoxic activities of the examined compounds were quantified by inoculating a 96-well tissue culture plate with 1 X 10^5 cells / mL (100 uL/well) and incubating it at 37°C for 24 hours to develop a complete monolayer sheet. After forming a confluent sheet of cells, the growth medium was decanted from 96-well microtiter plates, and the cell monolayer was washed twice with wash media. Two-fold dilutions of tested samples were made in RPMI medium with 2% serum (maintenance medium), and 0.1 mL of each dilution was tested in different wells, with three wells serving as controls and receiving only maintenance medium. Following that, the plate was incubated at 37°C and examined. Cells were investigated for any physical signs of toxicity, such as partial or complete monolayer loss, rounding, shrinkage, or cell granulation. MTT solution was prepared (5mg/ml in PBS) (BIO BASIC CANADA INC), and 20 uL MTT solution was added to each well. After 5 minutes on a shaking table at150 rpm to thoroughly mix the MTT into the media, it was incubated (37°C, 5% CO2) for 4 hours to allow the MTT to be metabolized. Formazan (MTT metabolic product) was resuspended in 200 uL DMSO and shaken at 150 rpm for 5 minutes to thoroughly mix the formazan into the solvent. The optical density was measured at 560 nm, and the background was subtracted at 620 nm. Finally, the IC50 of the test compound in comparison to the reference was calculated using the GraphPad Prism software. […]

BRD4 (BD2) = target: T1, BRD4 (BD2) (Homo sapiens, UniProt O60885); assay: BRD4 inhibitory activity assay (AlphaLISA Bromodomain Assay); assay type: binding;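 further: in vitro inhibition of recombinant BRD4 BD2 bromodomain binding to a BET bromodomain ligand, read by AlphaLISA proximity signal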
T1 construct: BRD4 (BD2) should be thawed on ice; purchased
Experimental: The BRD4 and PLK1 inhibitory assays were carried out in vitro in accordance with the manufacturer’s instructions; BRD4 was assessed using AlphaLISA Bromodomain Assay Protocol [67], and PLK1 kinase was tested using the ADP-Glo™ Kinase Assay Protocol [68], as detailed in the Supplementary file.
The BRD4 and PLK1 inhibitory assays were carried out in vitro in accordance with the manufacturer's instructions; BRD4 was assessed using AlphaLISA Bromodomain Assay Protocol [67], and PLK1 kinase was tested using the ADP-Glo™ Kinase Assay Protocol [68],
The master mixture was prepared as follows: N wells × (2.5 µL 3x BRD Homogeneous Assay Buffer 1 + 1 µL BET Bromodomain Ligand + 1.5 µL H2O). BRD4 (BD2) should be thawed on ice. Simply, the protein-containing tube was spined to recover the full content of the tube after the firstthaw. Both proteins should be aliquoted into single-use aliquots. Immediately, any remaining undiluted protein should be stored in aliquots at -80°C. BRD4 (BD2) was diluted in 1x BRD Homogeneous Assay Buffer 1 at 4 ng/µL. The diluted proteins were kept on ice until they were used. 5 µl of the master mixture is added to each well designated for the “Positive Control”, “Test Inhibitor”, and “Blank”. For the “Substrate Control”, 2.5 µL 3x BRD Homogeneous Assay Buffer 1 + 1 µL Non-acetylated Ligand 1 + 1.5 µL H2O is added. Each “Test Inhibitor” well received 2.5 µL of inhibitor solution, while the “Positive
Control”, “Substrate Control”, and “Blank” wells received 2.5 µL of the same solution without inhibitor (inhibitor buffer). Then, the “Blank” well is filled with 2.5 µL of 1x BRD Homogeneous Assay Buffer 1. After that, GSH
10 µL per well is added, the plate isshaken, and itis incubated at room temperature for 30 minutes. Streptavidin-
10 µL is added per well and incubated at room temperature for further 15 – 30 minutes [67]. The Alpha counts were read using the EnVision® multimode plate reader with the standard Alpha detection settings.

[3] = tested on: MDA-MB-231 breast cancer cells; assay: MTT cytotoxicity assay, MDA-MB-231; assay type: cell-based; details: MDA-MB-231, MTT
Experimental: as §1, §2, §3, §4, §5

human recombinant PLK1 = human recombinant PLK1 (Homo sapiens, UniProt P53350); assay: PLK1 inhibitory activity assay (ADP-Glo Kinase Assay); assay type: biochemical; details: for IC50: mean of three independent experiments, read-out: PLK1 IC50 ± SD; for %inh: PLK1 Lab Report
Experimental: The BRD4 and PLK1 inhibitory assays were carried out in vitro in accordance with the manufacturer’s instructions; BRD4 was assessed using AlphaLISA Bromodomain Assay Protocol, and PLK1 kinase was tested using the ADP-Glo™ Kinase Assay Protocol, as detailed in the Supplementary file. […]
1.2.2. PLK1 inhibitory activity assay
The kinase reaction was performed with active human recombinant PLK1 and combined with the substrate dephosphorylated casein (positive control) using 1 X reaction buffer (40 mM Tris-HCl pH 7.4, 20 mM MgCl2, 0.1 mg/mL BSA, 1 mM DTT) and 20 μM ATP. The reaction was incubated at30°C for 45 minutes. The amount of ATP transferred was calculated using […] reagent from Promega according to the manufacturer’s instruction.
A plate-reading luminometer isused to measure the luminescence. […]

MDA-MB-231 cells [4] = assay: Cell cycle analysis, propidium iodide flow cytometry; assay type: cell-based; details: treated at IC50 concentration, 48 h, control 9.19%
From the text: (§6) The results are indicated as a dot plot graph with four quadrant images (Figure 5B). […] However, both compounds also raised the necrotic percent by 1.8- and 2.8-fold, respectively, compared to non-treated cells. Overall, these findings implied that compound 7 could exert anticancer activity by producing cell cycle arrest at the G2/M phase and inducing apoptosis.
(§7) An Epics XL-MCL™ Flow Cytometer and Flowing software 2012 were used to count and analyze stained cells. The Supplementary file contains detailed descriptions of the flow cytometric analysis of cell-cycle distribution and cellular apoptosis. […]
(§8) 1.3.Cell cycle and apoptosis screening […]
(§9) investigated using an Ab-139418 propidium iodide flow cytometry kit and an Annexin-V assay and biparametric cytofluorimetric analysis, respectively, as instructed by the manufacturer. IC50s of both 7 and […]
Cytometer and Flowing software were used to count and analyze stained cells. The Supplementary file contains detailed descriptions of the flow cytometric analysis of cell-cycle distribution and cellular apoptosis.
1.3.1. Cell cycle analysis […]
a six-well plate containing MDA-MB-231 breast cancer cells was seeded with 1 X 10^5 cells per well and then […]
Following that, cells were gathered and fixed in ice-cold 70% ethanol at 4 °C for 12 hours. The cells were then rinsed with cold Phosphate Buffer Saline (PBS) and incubated for 30 minutes at 37°C in 0.5 mL of PBS after the ethanol was removed. Propidium iodide was used to stain the cells for 30 min while they were in the dark. DNA content was determined using a flow cytometer. […]

[5] = tested on: BAX gene in MDA-MB-231 cells; assay: RT-PCR gene expression, BAX; assay type: cell-based; details: 48 h treatment, control = 1
Experimental: (§10) As well, there was an apparent increase in caspase-3, showing 3.9-fold more expression than in control cells.
(§11) Fluorometric analysis was used to gauge the level of these genes’ expression. The procedure for the used kit was carried out in accordance with the manufacturer’s instructions, which are detailed in the Supplementary file. […]
(§12) […] at pH 7.4). The flow cytometer was then used to examine the cells […]
(§13) 1.4.Estimation of apoptotic and anti-apoptotic gene markers […]
(§14) such as Bax and caspase-3, as well as anti-apoptotic genes such as Bcl-2, was studied using the BIORAD iScriptTM One-Step RT-PCR kit with SYBR® Green. MDA-MB-231 cells were cultured before being treated for 48 hours […]
(§15) Fluorometric analysis was used to gauge the level of these genes' expression. The procedure for the used kit was carried out in accordance with the manufacturer's instructions, which are detailed as follows:
(§16) 1.4.1. RNA isolation and reverse transcription m RNA isolation iscarried out using an RNeasy extraction kit,up to 1 x 10^7 cells, depending on the cell line. Cells are disrupted in RNeasy Lysis Buffer (RLT buffer), homogenized, then ethanol is added to the lysate, creating conditions that promote selective binding of RNA to the RNeasy membrane. […]

[6] = tested on: Bcl-2 gene in MDA-MB-231 cells; assay: RT-PCR gene expression, Bcl-2; assay type: cell-based; details: 48 h treatment, control = 1
Experimental: as §10, §11, §12, §13, §14, §15, §16

[7] = tested on: caspase-3 gene in MDA-MB-231 cells; assay: RT-PCR gene expression, caspase-3; assay type: cell-based; details: 48 h treatment, control = 1
Experimental: as §10, §11, §12, §13, §14, §15, §16

MDA-MB-231 cells [8] = assay: Apoptosis screening, annexin V-FITC/PI flow cytometry; assay type: cell-based; details: compared to non-treated control MDA-MB-231 cells
From the text: as §6, §7, §8, §9
Cytometer and Flowing software were used to count and analyze stained cells. The Supplementary file contains detailed descriptions of the flow cytometric analysis of cell-cycle distribution and cellular apoptosis. […]
1.3.2. Apoptosis screening […]
plate received 1 X 105 conc. breast cancer (MDA-MB-231) cells that were then incubated for 24 hours. The cells […]
with PBS, and stained for 15 min at room temperature in the dark with annexin V-FITC and PI in binding buffer (10 […]
µM HEPES, 140 µM NaCl, and 2.5 µM CaCl2 at pH 7.4). […]
high-quality RNA iseluted in RNase-free water.
1.4.2. Master mix preparation
All the following reagents were mixed together to give a totalvolume (50 μL). 2X SYBR® Green RT-PCR reaction mixture (25 μL), forward primer (10 μM) (1.5 μL), reverse primer (10 μM) (1.5 μL), nuclease-free H2O (11 μL), RNA template (1 pg to 100 ng totalRNA) (10 μL) and iScript reverse transcriptase for One-Step RT-PCR (1 μL).
1.4.3. Amplification protocol
Incubate complete reaction mixture in a real-time thermal detection system (Rotorgene) as follows: cDNA synthesis:
10 min at 50 °C, iScript reverse transcriptase inactivation: 5 min at 95 °C, polymerase chain reaction (PCR) cycling and detection (30–45 cycles): 10 s at 95 °C and 30 s at 55 °C to 60 °C (data collection step) and melt curve analysis:
1 min at95 °C and 1 min at55 °C and 10 s at55 °C (80 cycles, increasing each by 0.5 °C each cycle).

Chain of human recombinant PLK1 (P53350 whole entry): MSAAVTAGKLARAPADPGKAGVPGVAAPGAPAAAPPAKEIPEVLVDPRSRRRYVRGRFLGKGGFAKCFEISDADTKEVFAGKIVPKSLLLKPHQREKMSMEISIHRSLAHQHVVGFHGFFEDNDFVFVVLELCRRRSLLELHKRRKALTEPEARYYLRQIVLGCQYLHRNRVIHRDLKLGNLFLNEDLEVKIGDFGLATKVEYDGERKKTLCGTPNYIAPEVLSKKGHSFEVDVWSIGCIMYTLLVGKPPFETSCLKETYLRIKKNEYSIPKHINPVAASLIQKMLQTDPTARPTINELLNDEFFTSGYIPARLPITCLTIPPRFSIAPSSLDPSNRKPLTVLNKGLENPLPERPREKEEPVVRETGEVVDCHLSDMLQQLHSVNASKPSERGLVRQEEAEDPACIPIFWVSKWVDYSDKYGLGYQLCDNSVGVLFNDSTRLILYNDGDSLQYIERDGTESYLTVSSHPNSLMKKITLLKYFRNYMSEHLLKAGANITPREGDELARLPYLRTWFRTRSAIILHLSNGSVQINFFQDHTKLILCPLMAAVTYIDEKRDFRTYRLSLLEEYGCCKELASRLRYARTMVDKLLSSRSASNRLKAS

- IC50 (BRD4 (BD2); mean of three independent experiments, read-out: BRD4 IC50 ± SD): 179 ± 8 nM
- melting point: > 300 °C
- IC50 (human recombinant PLK1): 41 ± 1 nM
Structure (SMILES): COc1ccc(-c2cnc3c(n2)c(=O)[nH]c(=O)n3Cc2ccccc2)cc1 [Compound 9, 1-Benzyl-6-(4-methoxyphenyl)pteridine-2,4(1H,3H)-dione]
- viability at 0.312 µM ([1]; 0.312 uM): 99.8%
- viability at 0.625 µM ([1]; 0.625 uM): 100%
- viability at 1.25 µM ([1]; 1.25 uM): 98.6%
- viability at 2.5 µM ([1]; 2.5 uM): 77%
- viability at 5 µM ([1]; 5 uM): 42%
- viability at 10 µM ([1]; 10 uM): 19.3%
- IC50 (U-937 renal cancer cells; Homo sapiens, U-937, mean of three independent experiments ± SD, read-out: IC50 Value U-937): 4420 ± 180 nM
- Toxicity % (U-937 renal cancer cells; 0.312 uM): 0.2179%
- Toxicity % (U-937 renal cancer cells; 0.625 uM): 0%
- Toxicity % (U-937 renal cancer cells; 1.25 uM): 1.416%
- Toxicity % (U-937 renal cancer cells; 2.5 uM): 23.04%
- Toxicity % (U-937 renal cancer cells; 5 uM): 58.01%
- Toxicity % (U-937 renal cancer cells; 10 uM): 80.66%
- Toxicity % ([2]; HT29, 0.312 uM): 0.2584%
- Toxicity % ([2]; HT29, 0.625 uM): 0.08613%
- Toxicity % ([2]; HT29, 1.25 uM): 0.08613%
- Toxicity % ([2]; HT29, 2.5 uM): 12.36%
- Toxicity % ([2]; HT29, 5 uM): 68.22%
- Toxicity % ([2]; HT29, 10 uM): 88.67%
- viability at 0.312 µM ([2]; Homo sapiens, HT-29, HT29, 0.312 uM): 99.7%
- viability at 0.625 µM ([2]; Homo sapiens, HT-29, HT29, 0.625 uM): 99.9%
- viability at 1.25 µM ([2]; Homo sapiens, HT-29, HT29, 1.25 uM): 99.9%
- viability at 2.5 µM ([2]; Homo sapiens, HT-29, HT29, 2.5 uM): 87.6%
- viability at 5 µM ([2]; Homo sapiens, HT-29, HT29, 5 uM): 31.8%
- viability at 10 µM ([2]; Homo sapiens, HT-29, HT29, 10 uM): 11.3%
- IC50 ([2]; Homo sapiens, HT-29, mean of three independent experiments ± SD, read-out: IC50 Value HT-29): 4110 ± 50 nM
- IC50 ([3]; Homo sapiens, mean of three independent experiments ± SD, read-out: IC50 Value MDA-MB-231): 2070 ± 30 nM
- viability at 0.312 µM ([3]; Homo sapiens, 0.312 uM): 99.7%
- viability at 0.625 µM ([3]; Homo sapiens, 0.625 uM): 99.2%
- viability at 1.25 µM ([3]; Homo sapiens, 1.25 uM): 86.2%
- viability at 2.5 µM ([3]; Homo sapiens, 2.5 uM): 33%
- viability at 5 µM ([3]; Homo sapiens, 5 uM): 13.5%
- viability at 10 µM ([3]; Homo sapiens, 10 uM): 5.45%
- Toxicity % ([3]; 0.312 uM): 0.266%
- Toxicity % ([3]; 0.625 uM): 0.7979%
- Toxicity % ([3]; 1.25 uM): 13.79%
- Toxicity % ([3]; 2.5 uM): 66.98%
- Toxicity % ([3]; 5 uM): 86.48%
- Toxicity % ([3]; 10 uM): 94.55%

- IC50 (BRD4 (BD2)): 17 ± 1 nM
- %inh (human recombinant PLK1; conc 0.01 (unit not given)): 42%
- %inh (human recombinant PLK1; conc 0.1 (unit not given)): 58%
- %inh (human recombinant PLK1; conc 1 (unit not given)): 76%
- %inh (human recombinant PLK1; conc 10 (unit not given)): 91%
- %inh (human recombinant PLK1; conc 100 (unit not given)): 96%
- IC50 (human recombinant PLK1): 25 ± 1 nM
Structure (SMILES): CC[C@@H]1C(=O)N(C)c2cnc(Nc3ccc(C(=O)N[C@H]4CC[C@H](N5CCN(CC6CC6)CC5)CC4)cc3OC)nc2N1C(C)C [Volasertib, reference compound]
- DNA content % at cell cycle phase %G2/M (MDA-MB-231 cells [4]): 17.38%
- Gene expression BAX (apoptotic gene) [5]: 5.332 fold
- Gene expression Bcl-2 (anti-apoptotic gene) [6]: 0.351 fold
- Gene expression Caspase-3 (apoptotic gene) [7]: 5.531 fold
- elevation in the late apoptotic stage (MDA-MB-231 cells [8]): ~110.2 fold
- increase in early apoptosis (MDA-MB-231 cells [8]): 24.4 fold
- increase in total apoptosis (MDA-MB-231 cells [8]): 16.3 fold
- rise of necrotic percent (MDA-MB-231 cells [8]): 2.8 fold
